Results reported in paper PMC10804372, “Degradation by Design: New Cyclin K Degraders from Old CDK Inhibitors” (ACS Chemical Biology, 2024).
pKd: −log10 of the molar value.

Tests used:
Cyclin K [1] = assay: Cyclin K levels by Western blot after single-concentration treatment; type: cell-based, human; settings: HEK293T cells, 1 μM for 2 h; for cyclin K degradation: Western blot; for Remaining Cyclin K (%): quantified from Western blots, mean ± SD, three independent experiments
Protocol: (§1) HEK293T human […] kidney cells were cultured in DMEM (Gibco/Life Technologies), containing 25 mM D-glucose, 4 mM L-glutamine, and 1 mM sodium pyruvate, and supplemented with 10% (v/v) FBS and 1% nonessential amino acids (Gibco/Life Technologies). Cells were incubated at 37 °C in a humidified atmosphere with 5% CO2.
(§2) Cells were washed with PBS and lysed (20 mM HEPES pH 7.5, 10% glycerol, 0.4 M KCl, 0.4% Triton X-100, 15 mM EDTA, and 1× protease and phosphatase inhibitors). The insoluble fraction was removed by centrifugation. Protein quantification was performed using a Bradford assay and compared to a BSA calibration curve. Equal amounts of lysates were run on SDS–PAGE 4–12% Bis–Tris Protein Gels (NuPAGE, Thermo Fisher Scientific) and then transferred onto Immobilon-P PVDF Membrane (Millipore, IPVH00010) using a Mini Trans-Blot Cell (Bio-Rad, 1703930). The membranes were blocked with 5% bovine albumin serum (BSA) in Tris-buffered saline with Tween 20 (TBS-T) and incubated with primary antibodies overnight at 4 °C. The membranes were washed three times with TBS-T and incubated with HRP-conjugated secondary antibody (BioRad) for 2 h. Membranes were washed again three times with TBS-T before being developed using Pierce ECL Western Blotting Substrate (Thermo, 32106) and visualized using LI-COR. Antibodies were purchased from Cell Signaling Technology: anti-GAPDH (D4C6R) and anti-DDB1 (D4C8) or Bethyl Laboratories: anti-Cyclin K (A301-939A). The following HRP-linked secondary antibodies were used by dilution in 5% BSA/TBS-T: antirabbit IgG (BioRad, 5213–2504) and antimouse IgG (BioRad, 103005).
(§3) Unedited blots containing the marker lane are available on request. Western blots were quantified using ImageJ. Cyclin K levels were normalized using GAPDH as a loading control. DC50 values were calculated from concentration–response curves using nonlinear regression fit to a 4-parameter curve by GraphPad Prism.

Cyclin K [2] = assay: Cyclin K degradation concentration-response (DC50, DMax) by Western blot; type: cell-based, human; settings: for DMax (%) / DC50: HEK293T, Western blot quantification, 3 biological repeats; for DC50: read-out: CycK DC50; for fold decrease in degradation ability versus pyridine counterpart: furan analogues vs 1 (CR8), 36, 40
Protocol: With the aim of comparing the degradation ability of the new analogues, we derived DC50 values by using Western blotting (Table 5). […] This approach has been previously used to improve the potency of BCL6 degraders.[33] We therefore also measured CDK12 affinity using the KINOMEscan binding assay (Table 5).[34]
as §1, §2, §3

CDK12 = molecular target: T1, CDK12 (Homo sapiens, UniProt Q9NYV4); assay: KINOMEscan binding assay (Eurofins DiscoverX); settings: for pKd: KINOMEscan
T1 construct: purchased Eurofins DiscoverX (KINOMEscan service)
T1 sequence (Q9NYV4 whole entry): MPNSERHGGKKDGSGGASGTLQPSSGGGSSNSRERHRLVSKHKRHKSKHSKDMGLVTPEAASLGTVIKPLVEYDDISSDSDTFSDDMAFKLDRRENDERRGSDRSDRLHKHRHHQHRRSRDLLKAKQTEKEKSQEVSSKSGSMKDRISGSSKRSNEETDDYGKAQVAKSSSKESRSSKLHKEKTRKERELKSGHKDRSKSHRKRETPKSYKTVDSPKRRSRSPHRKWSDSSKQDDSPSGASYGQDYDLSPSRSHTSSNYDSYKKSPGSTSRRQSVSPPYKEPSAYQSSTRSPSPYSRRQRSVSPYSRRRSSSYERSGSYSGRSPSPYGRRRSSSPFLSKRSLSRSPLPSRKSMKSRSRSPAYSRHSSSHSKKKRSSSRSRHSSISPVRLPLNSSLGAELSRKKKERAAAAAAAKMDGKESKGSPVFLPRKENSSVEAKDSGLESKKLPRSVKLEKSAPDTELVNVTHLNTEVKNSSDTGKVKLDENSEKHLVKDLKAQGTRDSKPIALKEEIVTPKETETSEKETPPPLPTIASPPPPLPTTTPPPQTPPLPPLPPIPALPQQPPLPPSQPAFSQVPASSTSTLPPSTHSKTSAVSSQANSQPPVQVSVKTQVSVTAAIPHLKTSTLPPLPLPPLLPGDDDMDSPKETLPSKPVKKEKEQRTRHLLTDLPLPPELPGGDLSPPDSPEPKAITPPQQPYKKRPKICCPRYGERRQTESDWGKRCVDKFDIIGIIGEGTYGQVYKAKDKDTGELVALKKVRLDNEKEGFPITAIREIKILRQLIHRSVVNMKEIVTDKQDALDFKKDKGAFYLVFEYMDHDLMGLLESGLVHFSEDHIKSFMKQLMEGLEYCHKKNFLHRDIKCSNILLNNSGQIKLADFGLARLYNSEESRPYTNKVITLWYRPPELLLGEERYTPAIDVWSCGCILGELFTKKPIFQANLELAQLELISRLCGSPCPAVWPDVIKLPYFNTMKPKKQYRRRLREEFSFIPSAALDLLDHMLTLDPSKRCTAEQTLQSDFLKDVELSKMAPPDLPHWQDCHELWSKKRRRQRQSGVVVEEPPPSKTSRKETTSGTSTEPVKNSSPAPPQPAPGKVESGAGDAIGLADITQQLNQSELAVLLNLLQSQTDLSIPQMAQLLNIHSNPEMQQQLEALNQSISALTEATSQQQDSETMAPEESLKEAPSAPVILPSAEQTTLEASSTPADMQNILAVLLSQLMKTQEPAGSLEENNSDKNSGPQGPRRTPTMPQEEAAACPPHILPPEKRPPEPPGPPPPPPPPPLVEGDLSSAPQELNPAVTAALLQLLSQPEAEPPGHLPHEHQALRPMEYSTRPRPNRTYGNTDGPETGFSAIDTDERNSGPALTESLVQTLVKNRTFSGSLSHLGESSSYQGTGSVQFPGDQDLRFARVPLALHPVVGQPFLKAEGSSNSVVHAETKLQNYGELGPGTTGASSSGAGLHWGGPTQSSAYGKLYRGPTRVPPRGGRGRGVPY

Structure (SMILES) | cyclin K degradation (Cyclin K [1]) | Remaining Cyclin K (%) (Cyclin K [1]) | other results
CC[C@H](CO)Nc1nc(NCc2ccc(-c3ccccc3)cc2)c2ncn(C(C)C)c2n1 [compound 3] | comparable to that of CR8 | 8 ± 7% | –
CC[C@H](CO)Nc1nc(NCc2ccc(-c3cccnc3)cc2)c2ncn(C(C)C)c2n1 [compound 4] | comparable to that of CR8 | 6 ± 4% | –
CC[C@H](CO)Nc1nc(NCc2ccc(-c3ccncc3)cc2)c2ncn(C(C)C)c2n1 [compound 5] | comparable to that of CR8 | 9 ± 6% | –
CC[C@H](CO)Nc1nc(NCc2ccc(-c3ccc(F)cn3)cc2)c2ncn(C(C)C)c2n1 [compound 6] | reduction in degradation activity | 42 ± 8% | –
CC[C@H](CO)Nc1nc(NCc2ccc(-c3ccc(C)cn3)cc2)c2ncn(C(C)C)c2n1 [compound 7] | abrogated degradation further | 93 ± 6% | –
CC[C@H](CO)Nc1nc(NCc2ccc(-c3ccc(CC(C)C)cc3)cc2)c2ncn(C(C)C)c2n1 [compound 9] | – | 79 ± 22% | –
CC[C@H](CO)Nc1nc(NCc2ccc(-c3ccc(C(=O)NC45CC6CC(CC(C6)C4)C5)cn3)cc2)c2ncn(C(C)C)c2n1 [compound 10] | – | 94 ± 8% | –
CC[C@H](CO)Nc1nc(NCc2ccc(-c3cccc(F)n3)cc2)c2ncn(C(C)C)c2n1 [compound 11] | complete degradation | 2 ± 3% | –
CC[C@H](CO)Nc1nc(NCc2ccc(-c3cccc(C)n3)cc2)c2ncn(C(C)C)c2n1 [compound 12] | complete degradation | 4 ± 4% | DMax (%) (Cyclin K [2]): >95%; DC50 (Cyclin K [2]): 0.106 µM; pKd (CDK12): 6.66
CC[C@H](CO)Nc1nc(NCc2ccc(-c3cc(F)ccn3)cc2)c2ncn(C(C)C)c2n1 [compound 13] | – | 3 ± 2% | –
CC[C@H](CO)Nc1nc(NCc2ccc(-c3cc(C)ccn3)cc2)c2ncn(C(C)C)c2n1 [compound 14] | – | 1 ± 0% | –
CCc1ccnc(-c2ccc(CNc3nc(N[C@H](CC)CO)nc4c3ncn4C(C)C)cc2)c1 [compound 16] | able to successfully induce degradation | 6 ± 4% | –
CC[C@H](CO)Nc1nc(NCc2ccc(-c3cc(C#N)ccn3)cc2)c2ncn(C(C)C)c2n1 [compound 17] | able to successfully induce degradation | 2 ± 2% | –
CC[C@H](CO)Nc1nc(NCc2ccc(-c3ncccc3F)cc2)c2ncn(C(C)C)c2n1 [compound 18] | able to induce degradation | 17 ± 13% | –
CC[C@H](CO)Nc1nc(NCc2ccc(-c3ncccc3C)cc2)c2ncn(C(C)C)c2n1 [compound 19] | reduced degradation ability compared to CR8 | 37 ± 16% | –
CC[C@H](CO)Nc1nc(NCc2ccc(C3=CCCCC3)cc2)c2ncn(C(C)C)c2n1 [compound 22] | partial degradation | 22 ± 5% | –

Structure (SMILES) | cyclin K degradation (Cyclin K [1]) | Remaining Cyclin K (%) (Cyclin K [1]) | other results
CC[C@H](CO)Nc1nc(NCc2ccc(N3CCNCC3)cc2)c2ncn(C(C)C)c2n1 [compound 24] | significantly reduced degradation ability | 86 ± 20% | –
CC[C@H](CO)Nc1nc(NCc2ccc(C3=CCCC3)cc2)c2ncn(C(C)C)c2n1 [compound 26] | complete cyclin K degradation | 5 ± 4% | –
CC[C@H](CO)Nc1nc(NCc2ccc(C3CCCC3)cc2)c2ncn(C(C)C)c2n1 [compound 27] | only partial degradation | 31 ± 16% | –
CC[C@H](CO)Nc1nc(NCc2ccc(-c3ccoc3)cc2)c2ncn(C(C)C)c2n1 [compound 28] | complete degradation | 2 ± 2% | –
CC[C@H](CO)Nc1nc(NCc2ccc(C)cc2)c2ncn(C(C)C)c2n1 [compound 32] | little to no degradation | 89 ± 8% | –
CC[C@H](CO)Nc1nc(NCc2ccc(Br)cc2)c2ncn(C(C)C)c2n1 [compound 33] | little to no degradation | 73 ± 29% | –
C=Cc1ccc(CNc2nc(N[C@H](CC)CO)nc3c2ncn3C(C)C)cc1 [compound 34] | little to no degradation | 63 ± 22% | –
CCc1ccc(CNc2nc(N[C@H](CC)CO)nc3c2ncn3C(C)C)cc1 [compound 35] | little to no degradation | 90 ± 14% | –
OCCC1CCCCN1c1cc(NCc2ccc(-c3ccccn3)cc2)n2ncc(Br)c2n1 (centres unmarked) [compound 36] | – | 2 ± 1% | improvement in degradation as measured by DC50 versus compound 1 (Cyclin K [2]; 36 vs 1): fivefold; DMax (%) (Cyclin K [2]): >95%; DC50 (Cyclin K [2]): 0.01 µM; fold better CDK12 affinity versus CR8/seliciclib-core analogue (CDK12; 36 vs 1, 37 vs 21): 100 fold; pKd (CDK12): 8.40
Cc1ccnc(-c2ccc(CNc3cc(N4CCCCC4CCO)nc4c(Br)cnn34)cc2)c1 (centres unmarked) [compound 38] | – | 3 ± 4% | –
OCCC1CCCCN1c1cc(NCc2ccc(-c3ccco3)cc2)n2ncc(Br)c2n1 (centres unmarked) [compound 39] | – | 4 ± 4% | DMax (%) (Cyclin K [2]): >95%; DC50 (Cyclin K [2]): 0.072 µM; fold decrease in degradation ability versus pyridine counterpart (Cyclin K [2]): 4–8 fold; pKd (CDK12): 7.77
O=C(NCc1ccc(-c2ccccn2)cc1)c1n[nH]cc1NC(=O)c1c(Cl)cccc1Cl [compound 40] | – | 1 ± 1% | DMax (%) (Cyclin K [2]): >95%; DC50 (Cyclin K [2]): 0.021 µM; fold difference (weaker) in CDK12 binding affinity versus compound 36 (CDK12; 40 vs 36): 250 fold; pKd (CDK12): 6.00
O=C(NCc1ccc(-c2ccco2)cc1)c1n[nH]cc1NC(=O)c1c(Cl)cccc1Cl [compound 42] | – | 20 ± 14% | DMax (%) (Cyclin K [2]): >95%; DC50 (Cyclin K [2]): 0.168 µM; fold decrease in degradation ability versus pyridine counterpart (Cyclin K [2]): 4–8 fold; pKd (CDK12): 6.00
OCCC1CCCCN1c1cc(NCc2ccccc2)n2ncc(Br)c2n1 (centres unmarked) [compound 43] | – | – | pKd (CDK12): 8.00
O=C(NCc1ccccc1)c1n[nH]cc1NC(=O)c1c(Cl)cccc1Cl [compound 44] | – | – | pKd (CDK12): 5.26
